Experimental findings from patent publication US6555328B1, “Screening methods for altering circadian rhythms and for human casein kinase I δ and/or ε phosphorylation of human clock proteins, period 1, -2 and -3” (Aventis Pharmaceuticals Inc., priority 1999, dated 2003) are described below.

Common to all, as to type: cell-based
Test [1] has as its target hCKIε phosphorylation of hPER1 (Homo sapiens, UniProt P49674). Nature of the test: Treatment of transfected cells with hCKIε inhibitor: hPER1 phosphorylation. From the text: (§1) Furthermore, like hCKIε and hPER1, HCKIε co-immunoprecipitates with transfected hPER2. Treatment of transfected cells with the hCKIε inhibitor, CKI-7, results in a decrease of hPER1 and hPER2 phosphorylation. Pulse/chase studies reveal that increased phosphorylation of hPER2 by transfected hCKIε caused hPER2 to be degraded.

The target of test [2] is hCKIε phosphorylation of hPER2 (Homo sapiens, UniProt P49674). Nature of the test: Treatment of transfected cells with hCKIε inhibitor: hPER2 phosphorylation.
Excerpt: as §1

Test [3] deals with rat PER1 oscillation in Rat1 fibroblast or Rat SCN cells. In words: PER1 mRNA oscillation after serum shock by TaqMan RT-PCR. Particulars: 10 uM, FIG. 10/11. On the procedure: To test the effect of CKI inhibitors in altering rat PER1 oscillation by quantitative PCR using TaqMan RT-PCR (Perkin Elmer Biosystems), rat-1 fibriblasts are grown in Dulbecco's modified Eagle medium supplimented with 5% fetal calf serum and a mixture of penicillin-streptomycin-glutatamine. SCN cells are grown in Dulbecco's Minimum Eagle medium supplimented with 10% fetal calf serum penicillin-streptomycin-glutamine and 2% glucose. Approximately 5×10^5 cells are plated in 10 cm petri dishes 3-5 days prior to the experiment. Once the plates are confluent, which is designated as time=0, the medium is exchanged with serum rich medium, i.e. serum containing 50% horse serum. After 2 hours of the serum shock in 50% horse serum, this medium is replaced with serum-free medium. At indicated times, the dishes are washed with PBS and kept frozen at −80° C. until the extraction of whole cell mRNA. hCK1ε inhibitor or control is added at the time when serum-free medium is added.
Whole cell mRNA is extracted by means of RNeasy Midi kit or Rnleasy 96 kit (Qiagen) and Dnase treated (Ambion DNA-free). Quantitative PCR is performed with real-time Taq-Man technology (PE Biosystems) [C. A. Heid et al., Genomes Res. 6. M (1996)] and analysed on an ABI PRISM 7700 (T. Takumi et al., Genes Cells 4, 67: 1999). […] Ratios of rPer1 to rActin were calculated and normalized.
On the technique in general: In qPCR the cycle at which signal appears reflects the starting amount.

hCKIε phosphorylation of hPER1, sequence (P49674 whole entry): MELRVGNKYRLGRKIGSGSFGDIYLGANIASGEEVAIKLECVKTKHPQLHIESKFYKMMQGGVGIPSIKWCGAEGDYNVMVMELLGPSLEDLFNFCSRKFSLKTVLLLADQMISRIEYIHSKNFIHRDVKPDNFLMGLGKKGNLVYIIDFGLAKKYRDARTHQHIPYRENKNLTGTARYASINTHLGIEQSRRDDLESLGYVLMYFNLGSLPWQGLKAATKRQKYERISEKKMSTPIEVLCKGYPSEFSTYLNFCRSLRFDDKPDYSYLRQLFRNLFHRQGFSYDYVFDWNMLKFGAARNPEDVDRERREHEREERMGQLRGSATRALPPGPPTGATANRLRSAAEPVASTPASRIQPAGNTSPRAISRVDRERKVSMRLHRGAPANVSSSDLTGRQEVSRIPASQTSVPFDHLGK
hCKIε phosphorylation of hPER2, sequence (P49674 whole entry): as above

Consider `NCCNS(=O)(=O)c1ccc(Cl)c2ccncc12` [CKI-7], for which the hPER1 phosphorylation entry in test [1] is “decrease”. In addition, the hPER2 phosphorylation entry in test [2] was “decrease”.

As to `CNCCC(Oc1ccc(C(F)(F)F)cc1)c1ccccc1` (stereo not drawn) [F, Fluoxitin], the “effect on circadian rhythm of cells (rat Per1 mRNA levels)” value in test [3] was “do not alter the circadian rhythm of cells”.
